Reference: US11786492B2, “Therapeutic agent for phosphodiesterase inhibition and its related disorders” (Novalead Pharma Inc, priority 2017, dated 2023)

How the values were obtained:
[1] = molecular target: PDE7A (Homo sapiens, UniProt Q13946); test: Fluorescence polarization assay PDE7A; format: biochemical; conditions: substrate cAMP
Method: (§1) An experiment to check inhibition of various subtypes of the target Phosphodiesterase (PDE) enzyme in in-vitro assay was performed. […] PDE1A, PDE2A, PDE4A, PDE4B, PDE4C, PDE4D, PDE5A, PDE7A, PDE9A, PDE10A.

[2] = molecular target: PDE4A (Homo sapiens, UniProt P27815); test: Fluorescence polarization assay PDE4A; format: biochemical; conditions: substrate cAMP
PDE4A, sequence (P27815 whole entry, species assumed): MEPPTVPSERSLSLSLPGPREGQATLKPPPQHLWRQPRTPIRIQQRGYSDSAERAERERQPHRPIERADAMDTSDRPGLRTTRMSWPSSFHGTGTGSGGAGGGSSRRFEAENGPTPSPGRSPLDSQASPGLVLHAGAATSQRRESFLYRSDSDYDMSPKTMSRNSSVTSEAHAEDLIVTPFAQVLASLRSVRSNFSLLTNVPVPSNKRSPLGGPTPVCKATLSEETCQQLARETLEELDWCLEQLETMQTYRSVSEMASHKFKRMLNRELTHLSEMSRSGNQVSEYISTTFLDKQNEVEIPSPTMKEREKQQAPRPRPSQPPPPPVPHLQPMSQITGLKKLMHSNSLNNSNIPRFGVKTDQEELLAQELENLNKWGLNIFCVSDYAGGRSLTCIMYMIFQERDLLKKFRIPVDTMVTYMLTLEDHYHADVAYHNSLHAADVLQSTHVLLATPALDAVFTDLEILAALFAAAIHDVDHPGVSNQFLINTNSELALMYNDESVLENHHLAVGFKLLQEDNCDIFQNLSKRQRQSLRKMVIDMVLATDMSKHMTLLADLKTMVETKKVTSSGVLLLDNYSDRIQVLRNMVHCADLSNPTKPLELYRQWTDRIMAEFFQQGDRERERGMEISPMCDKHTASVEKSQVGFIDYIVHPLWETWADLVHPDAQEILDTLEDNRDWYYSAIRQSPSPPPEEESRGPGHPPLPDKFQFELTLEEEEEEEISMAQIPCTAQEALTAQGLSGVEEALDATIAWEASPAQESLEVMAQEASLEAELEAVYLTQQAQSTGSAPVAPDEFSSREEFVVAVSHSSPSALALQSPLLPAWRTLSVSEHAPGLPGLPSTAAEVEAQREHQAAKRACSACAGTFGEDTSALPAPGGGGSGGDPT
Method: as §1

[3] = molecular target: T1, PDE5 (Human platelets) (Homo sapiens, UniProt O76074); test: Radiolabeled enzyme assay PDE5; format: biochemical; conditions: read-out: % inhibition at 30 μM, 1.01 μM [3H]cGMP+cGMP
T1 construct: PDE5 (Human platelets); from tissue; host or cells: human platelets
Method: (§2) Enzyme assays have been optimized for incubation time, substrate concentration and method of end-product determination.

[4] = molecular target: PDE2A (Homo sapiens, UniProt O00408); test: Fluorescence polarization assay PDE2A; format: biochemical; conditions: substrate cGMP
PDE2A, sequence (O00408 whole entry, species assumed): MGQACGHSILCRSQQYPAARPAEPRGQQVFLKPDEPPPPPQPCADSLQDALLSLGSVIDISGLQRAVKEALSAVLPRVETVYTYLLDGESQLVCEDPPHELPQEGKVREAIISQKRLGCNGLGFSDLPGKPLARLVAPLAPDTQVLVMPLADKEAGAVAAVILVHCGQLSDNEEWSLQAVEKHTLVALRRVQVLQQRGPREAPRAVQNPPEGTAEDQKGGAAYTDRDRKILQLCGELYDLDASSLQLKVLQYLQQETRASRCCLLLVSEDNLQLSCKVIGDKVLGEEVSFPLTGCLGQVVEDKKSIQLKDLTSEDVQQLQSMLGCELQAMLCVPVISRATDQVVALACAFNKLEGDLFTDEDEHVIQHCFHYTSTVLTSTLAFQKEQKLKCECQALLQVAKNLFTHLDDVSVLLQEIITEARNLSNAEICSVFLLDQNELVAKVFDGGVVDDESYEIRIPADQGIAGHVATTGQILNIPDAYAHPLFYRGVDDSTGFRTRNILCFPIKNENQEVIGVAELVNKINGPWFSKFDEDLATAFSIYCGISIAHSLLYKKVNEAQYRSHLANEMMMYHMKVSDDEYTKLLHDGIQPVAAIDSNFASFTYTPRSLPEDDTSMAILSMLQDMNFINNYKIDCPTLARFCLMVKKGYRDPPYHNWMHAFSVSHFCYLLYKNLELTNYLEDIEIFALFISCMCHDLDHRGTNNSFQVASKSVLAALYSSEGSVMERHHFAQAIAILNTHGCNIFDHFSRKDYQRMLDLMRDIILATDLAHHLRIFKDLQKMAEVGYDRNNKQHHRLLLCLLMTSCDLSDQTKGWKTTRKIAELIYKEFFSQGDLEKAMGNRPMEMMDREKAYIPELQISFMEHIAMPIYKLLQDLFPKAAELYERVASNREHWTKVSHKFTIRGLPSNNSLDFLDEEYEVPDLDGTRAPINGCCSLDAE
Method: as §1

[5] = molecular target: T2, PDE2 (Human platelets) (Homo sapiens, UniProt O00408); test: Radiolabeled enzyme assay PDE2; format: biochemical; conditions: read-out: % inhibition at 30 μM, 1.01 μM [3H]cAMP+cAMP
T2 construct: PDE2 (Human platelets); from tissue; host or cells: human platelets
T2 sequence (O00408 whole entry): as the sequence (O00408 whole entry, species assumed) above
Method: as §2

[6] = test system: Imiquimod induced psoriasis in BALB/c mice; test: Imiquimod induced psoriasis model in Balb/c mice; conditions: for % inhibition of Ear inflamn. / Histopathology Scores Epidermal Thickness / Histopathology Scores Hyperkeratosis / Histopathology Scores Rete Peg Prolifern. / PASI score / Spleen weight / IL23 Levels: twice daily; for IL23 Levels: ear tissue lysate
Method: BALB/c mice (Sex: Female, Age: 7-8 Weeks) were used for induction of psoriasis using IMQ. Topical application of imiquimod (IMQ) in mice can induce and exacerbate psoriasis closely resembling human psoriasis. […] 3%, 4% and 5% and positive control of Tenovate (Clobetasol) 0.05% cream. In all 63 mg cream containing 5% of IMQ was applied to dorsal area (shaved back) and right ear for 8 days. Topical formulations from Example 7 were used during this experiment.
The parameters investigated were ear thickness change, % inhibition of ear inflammation, Psoriatic Area Severity Index (PASI). Histopathology was performed of right ear and dorsal skin by H & E staining. The biomarker in this study was inflammatory cytokine IL-23 analyzed by ELISA obtained from tissue lysate of ear region where IMQ and doses were applied.

[7] = molecular target: PDE10A (Homo sapiens, UniProt Q9Y233); test: Fluorescence polarization assay PDE10A; format: biochemical; conditions: substrate cAMP
PDE10A, sequence (Q9Y233 whole entry, species assumed): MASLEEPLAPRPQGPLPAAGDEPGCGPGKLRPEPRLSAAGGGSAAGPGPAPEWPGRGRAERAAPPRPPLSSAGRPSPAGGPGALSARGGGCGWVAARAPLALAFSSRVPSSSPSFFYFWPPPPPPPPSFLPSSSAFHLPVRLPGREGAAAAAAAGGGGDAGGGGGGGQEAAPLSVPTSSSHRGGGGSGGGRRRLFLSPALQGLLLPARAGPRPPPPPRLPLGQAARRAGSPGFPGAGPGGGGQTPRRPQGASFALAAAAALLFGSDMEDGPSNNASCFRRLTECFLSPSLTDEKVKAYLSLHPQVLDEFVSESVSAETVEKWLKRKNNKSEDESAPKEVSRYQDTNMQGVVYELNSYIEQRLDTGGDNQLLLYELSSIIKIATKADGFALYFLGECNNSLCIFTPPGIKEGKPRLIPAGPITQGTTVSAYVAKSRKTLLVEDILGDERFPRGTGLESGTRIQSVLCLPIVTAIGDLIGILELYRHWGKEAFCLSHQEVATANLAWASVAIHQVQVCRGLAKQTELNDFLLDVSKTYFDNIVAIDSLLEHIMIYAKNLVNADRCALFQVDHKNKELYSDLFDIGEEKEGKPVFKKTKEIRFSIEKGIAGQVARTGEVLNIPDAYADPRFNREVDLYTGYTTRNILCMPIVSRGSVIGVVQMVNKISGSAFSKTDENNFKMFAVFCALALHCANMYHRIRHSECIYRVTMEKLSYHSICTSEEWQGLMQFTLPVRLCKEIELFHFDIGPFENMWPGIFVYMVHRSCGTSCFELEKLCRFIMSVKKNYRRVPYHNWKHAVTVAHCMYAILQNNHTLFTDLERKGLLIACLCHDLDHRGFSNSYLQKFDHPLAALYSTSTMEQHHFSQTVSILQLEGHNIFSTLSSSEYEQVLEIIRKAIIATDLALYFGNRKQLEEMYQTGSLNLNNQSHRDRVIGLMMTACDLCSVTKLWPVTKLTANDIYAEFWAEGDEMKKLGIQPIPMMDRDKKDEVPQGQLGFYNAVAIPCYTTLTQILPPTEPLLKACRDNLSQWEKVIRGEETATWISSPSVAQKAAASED
Method: as §1

[8] = molecular target: PDE4B (Homo sapiens, UniProt Q07343); test: Fluorescence polarization assay PDE4B; format: biochemical; conditions: substrate cAMP
Method: as §1

[9] = test system: HaCaT cells; test: Keratinocyte (HaCaT) proliferation, MTT assay; format: cell-based, human; conditions: Homo sapiens, HaCaT, 72 h; read-out: IC50 of cell proliferation
Method: An experiment to check keratinocyte proliferation inhibitory activity of selected compounds of Formula-I was performed to establish its application in skin disorders related to keratinocyte hyper-proliferation. HaCaT cells, a human immortalized cell line derived from keratinocytes, representing hyper-proliferating keratinocytes was investigated for anti-proliferative potential of the selected compounds by MTT assay.

[10] = molecular target: PDE9A (Homo sapiens, UniProt O76083); test: Fluorescence polarization assay PDE9A; format: biochemical; conditions: substrate cGMP
Method: as §1

[11] = test system: TNF-α; test: TNF-α release from stimulated HaCaT cells, ELISA; format: cell-based, human; conditions: IFN-γ 50 ng/mL, 48 hrs
Method: (§3) HaCaT cells were maintained in T-75 cm2 flask in Dulbecco's modified Eagle medium supplemented with FBS (10%), L-glutamine (2 mM), penicillin (100 ug/ml), streptomycin (100 ug/ml) at 37° C. in 5% CO2 incubator. Cell growth was maintained to 70-80% confluence for seeding and vehicle used was 1% DMSO. The cell viability was checked at various time points using Alamar blue and fluorescence readings were taken at excitation of 544 nm and emission of 590 nm.
(§4) HaCaT cells were stimulated with different stimulators as follows: • a. Cells were exposed to stimulator LPS at 1 μg/mL for 48 hrs to stimulate IL-1β • b. Cells were exposed to stimulator IFN-γ at 50 ng/mL for 48 hrs to stimulate TNF-α, IL-6
(§5) After 48 hrs supernatants were collected and centrifuged to remove any cell debris and aliquots were used for ELISA.

[12] = test system: IL-6; test: IL-6 release from stimulated HaCaT cells, ELISA; format: cell-based, human; conditions: for IL-6 Conc.: IFN-γ 50 ng/mL, 48 hrs
Method: as §3, §4, §5

[13] = test system: human PBMCs; test: Cell viability of human PBMCs, Alamar blue; format: cell-based
Method: Fresh human blood from healthy volunteer was collected in anticoagulant (5 mM) ethylene diamine tetra acetic acid (EDTA) containing tubes. The growth medium used was RPMI-1640 medium (with 3% FBS) and incubated at 37° C. for 60 mins in a 5% CO2 incubator with vehicle used as 1% DMSO. The cell viability was checked at various time points using Alamar blue and fluorescence readings were taken at excitation of 544 nm and emission of 590 nm.

[14] = molecular target: PDE1A (Homo sapiens, UniProt P54750); test: Fluorescence polarization assay PDE1A; format: biochemical; conditions: substrate cGMP, Ca-CaM
PDE1A, sequence (P54750 whole entry, species assumed): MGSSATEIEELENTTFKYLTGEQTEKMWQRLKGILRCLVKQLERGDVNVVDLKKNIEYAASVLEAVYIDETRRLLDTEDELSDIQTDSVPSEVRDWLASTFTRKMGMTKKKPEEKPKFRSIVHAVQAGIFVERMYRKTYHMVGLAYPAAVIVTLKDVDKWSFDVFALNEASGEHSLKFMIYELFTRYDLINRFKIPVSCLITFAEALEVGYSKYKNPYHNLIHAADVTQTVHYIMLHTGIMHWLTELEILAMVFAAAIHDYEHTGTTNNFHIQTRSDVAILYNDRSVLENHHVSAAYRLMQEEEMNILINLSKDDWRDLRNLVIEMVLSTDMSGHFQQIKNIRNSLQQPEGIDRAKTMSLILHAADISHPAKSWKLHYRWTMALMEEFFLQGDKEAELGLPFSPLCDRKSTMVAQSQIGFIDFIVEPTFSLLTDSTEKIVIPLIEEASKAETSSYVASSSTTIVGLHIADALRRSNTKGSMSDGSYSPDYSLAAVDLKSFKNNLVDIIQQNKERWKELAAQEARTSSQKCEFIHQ
Method: as §1

[15] = molecular target: PDE4C (Homo sapiens, UniProt Q08493); test: Fluorescence polarization assay PDE4C; format: biochemical; conditions: substrate cAMP
PDE4C, sequence (Q08493 whole entry, species assumed): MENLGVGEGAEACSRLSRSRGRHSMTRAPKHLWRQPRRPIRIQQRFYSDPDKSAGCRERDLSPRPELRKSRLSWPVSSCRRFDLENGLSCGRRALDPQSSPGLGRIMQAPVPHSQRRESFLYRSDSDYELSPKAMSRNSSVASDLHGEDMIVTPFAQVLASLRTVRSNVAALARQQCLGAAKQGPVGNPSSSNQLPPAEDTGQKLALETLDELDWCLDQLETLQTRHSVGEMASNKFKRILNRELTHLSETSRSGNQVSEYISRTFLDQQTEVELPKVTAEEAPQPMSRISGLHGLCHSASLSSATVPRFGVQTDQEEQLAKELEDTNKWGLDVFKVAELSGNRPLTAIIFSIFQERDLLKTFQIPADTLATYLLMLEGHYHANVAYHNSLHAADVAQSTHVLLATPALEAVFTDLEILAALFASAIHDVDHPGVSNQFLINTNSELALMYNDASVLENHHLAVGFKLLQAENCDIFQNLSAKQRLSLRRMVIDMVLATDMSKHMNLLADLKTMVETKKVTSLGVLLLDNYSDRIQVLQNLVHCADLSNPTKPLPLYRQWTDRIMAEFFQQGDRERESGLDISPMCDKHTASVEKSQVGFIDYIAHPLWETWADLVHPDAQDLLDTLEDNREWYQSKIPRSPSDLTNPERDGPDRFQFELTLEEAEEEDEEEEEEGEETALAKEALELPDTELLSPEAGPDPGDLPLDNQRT
Method: as §1

[16] = molecular target: PDE5A (Homo sapiens, UniProt O76074); test: Fluorescence polarization assay PDE5A; format: biochemical; conditions: substrate cGMP
Method: as §1

[17] = test system: HaCaT cells; test: Cell viability of HaCaT cells, Alamar blue; format: cell-based, human
Method: as §3

PDE7A, sequence (Q13946 whole entry, species assumed): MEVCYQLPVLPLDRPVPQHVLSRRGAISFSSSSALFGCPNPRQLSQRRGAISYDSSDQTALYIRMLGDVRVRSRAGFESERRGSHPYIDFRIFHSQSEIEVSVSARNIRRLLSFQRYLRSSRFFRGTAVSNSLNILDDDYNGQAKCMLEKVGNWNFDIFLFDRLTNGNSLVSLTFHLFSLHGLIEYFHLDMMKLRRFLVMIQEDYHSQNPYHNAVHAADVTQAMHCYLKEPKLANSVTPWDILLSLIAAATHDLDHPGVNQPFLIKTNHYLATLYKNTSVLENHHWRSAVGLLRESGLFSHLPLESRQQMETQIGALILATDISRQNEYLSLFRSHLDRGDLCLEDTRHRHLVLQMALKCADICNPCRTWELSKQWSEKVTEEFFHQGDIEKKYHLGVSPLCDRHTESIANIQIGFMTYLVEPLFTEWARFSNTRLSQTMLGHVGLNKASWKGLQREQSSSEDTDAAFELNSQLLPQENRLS

O=C(Nc1ccc([N+](=O)[O-])cc1Cl)c1cc(Cl)ccc1O [Niclosamide]
IC50 [1]: 19.1 µM | IC50 [2]: 100 µM | inhibition at 30 µM [3]: 49% | IC50 [4]: 11.6 µM | inhibition at 30 µM [5]: 16% | % inhibition of Ear inflamn. ([6]; 1% topical): 27.1% | Histopathology Scores Epidermal Thickness ([6]; 1% topical): 6.8 ± 0.2 | Histopathology Scores Hyperkeratosis ([6]; 1% topical): 0.8 ± 0.2 | Histopathology Scores Rete Peg Prolifern. ([6]; 1% topical): 1.8 ± 0.2 | PASI score ([6]; 1% topical): 15.8 ± 3.0 | Spleen weight ([6]; 1% topical, Day 9): 265.2 ± 49.2 mg | IL23 Levels ([6]; 1% topical): 119.9 ± 7.8 pg/mL | % inhibition of Ear inflamn. ([6]; 2% topical): 30.4% | Histopathology Scores Epidermal Thickness ([6]; 2% topical): 5.6 ± 0.8 | Histopathology Scores Hyperkeratosis ([6]; 2% topical): 1.4 ± 0.2 | Histopathology Scores Rete Peg Prolifern. ([6]; 2% topical): 1.4 ± 0.2 | PASI score ([6]; 2% topical): 17.2 ± 1.7 | Spleen weight ([6]; 2% topical, Day 9): 214.4 ± 15.1 mg | IL23 Levels ([6]; 2% topical): 96.6 ± 10.9 pg/mL | reduction in the PASI score ([6]; 3% concentration): up to 50% | % inhibition of Ear inflamn. ([6]; 3% topical): 42.7% | Histopathology Scores Epidermal Thickness ([6]; 3% topical): 5.2 ± 0.2 | Histopathology Scores Hyperkeratosis ([6]; 3% topical): 1.0 ± 0.0^$ | Histopathology Scores Rete Peg Prolifern. ([6]; 3% topical): 0.5 ± 0.2 | PASI score ([6]; 3% topical): 10.7 ± 4.1 | Spleen weight ([6]; 3% topical, Day 9): 229.7 ± 18.7 mg | IL23 Levels ([6]; 3% topical): 83.6 ± 9.8 pg/mL | Spleen weight vs disease control (in words) ([6]; Niclosamide 2%, Nitazoxanide 3% and 5%, Clobetasol 0.05%, Day 9): marginal reduction in spleen weight | IL-23 level in ear tissue homogenates (in words) ([6]; different doses): reduction of IL-23 level | Hyperkeratosis (in words) ([6]; ear lobe histopathology): significant reduction in Hyperkeratosis | IC50 [7]: 19 µM | IC50 [8]: 69.1 µM | IC50 [9]: 3.25 µM | IC50 [10]: 59.8 µM | TNF-α Conc. ([11]; 0.05 μM): 2.5 ± 0.1 pg/mL | TNF-α Conc. ([11]; 0.1 μM): 2.8 ± 0.1 pg/mL | TNF-α Conc. ([11]; 0.25 μM): 2.5 ± 0.1 pg/mL | IL-6 Conc. ([12]; 0.05 μM): 103 ± 4 pg/mL | IL-6 Conc. ([12]; 0.1 μM): 76 ± 4 pg/mL | IL-6 release in HaCaT cells (in words) ([12]; 0.25 μM): Reduction in IL-6 release | IL-6 Conc. ([12]; 0.25 μM): 54 ± 11 pg/mL | % Viability (±S.E.M.) ([13]; 0.01 μM, 24 hrs): 134 ± 7% | % Viability (±S.E.M.) ([13]; 0.01 μM, 48 hrs): 107 ± 1% | % Viability (±S.E.M.) ([13]; 0.01 μM, 72 hrs): 107 ± 6% | % Viability (±S.E.M.) ([13]; 1 μM, 24 hrs): 94 ± 4% | % Viability (±S.E.M.) ([13]; 1 μM, 48 hrs): 63 ± 0% | % Viability (±S.E.M.) ([13]; 1 μM, 72 hrs): 60 ± 1% | % Viability (±S.E.M.) ([13]; 100 μM, 24 hrs): 27 ± 5% | % Viability (±S.E.M.) ([13]; 100 μM, 48 hrs): 2 ± 1% | % Viability (±S.E.M.) ([13]; 100 μM, 72 hrs): −2 ± 0% | IC50 [14]: 88.7 µM | IC50 [15]: 20.2 µM | IC50 [16]: 16.7 µM | % Viability (±S.E.M.) ([17]; 0.1 μM, 24 hrs): 111 ± 9% | % Viability (±S.E.M.) ([17]; 0.1 μM, 48 hrs): 82 ± 3% | % Viability (±S.E.M.) ([17]; 0.1 μM, 72 hrs): 98 ± 6% | % Viability (±S.E.M.) ([17]; 1 μM, 24 hrs): 62 ± 4% | % Viability (±S.E.M.) ([17]; 1 μM, 48 hrs): 46 ± 0% | % Viability (±S.E.M.) ([17]; 1 μM, 72 hrs): 59 ± 11% | % Viability (±S.E.M.) ([17]; 5 μM, 24 hrs): 48 ± 1% | % Viability (±S.E.M.) ([17]; 5 μM, 48 hrs): 36 ± 2% | % Viability (±S.E.M.) ([17]; 5 μM, 72 hrs): 45 ± 8% | % Viability (±S.E.M.) ([17]; 10 μM, 48 hrs): 29 ± 1% | % Viability (±S.E.M.) ([17]; 10 μM, 72 hrs): 33 ± 2% | % Viability (±S.E.M.) ([17]; 50 μM, 24 hrs): 28 ± 1% | % Viability (±S.E.M.) ([17]; 50 μM, 48 hrs): 16 ± 0% | % Viability (±S.E.M.) ([17]; 50 μM, 72 hrs): 23 ± 7%
